Measurements: PMC7252619 (PLoS ONE, 2020)
Where two headings read alike, the source gives them in different places.

Legend:
[1] = WST-1 cytotoxicity assay on RPMI1788 cells (B-cell line); assay type: cell-based, human; conditions: human, RPMI1788 cells (B-cell line), mean of 4 independent measures, read-out: Cytotoxicity, WST-1 RPMI 1788 IC 50 (µM) Mean
[2] = tested on: human PBMCs (responder cells) with RPMI1788 stimulator cells; assay: Mixed Lymphocyte Reaction (MLR, T cell assay), 3H-thymidine incorporation; assay type: cell-based; conditions: for IC50: Homo sapiens, RPMI-1788, mean of 4 independent measures, read-out: T-cell efficacy, MLR IC 50 (µM) Mean; for Selectivity Index (SI) MLR/B-cell: ratio of IC50 values
Description: In order to test the efficacy and selectivity of the hit compounds on B-cells, 4 assays were performed: B-cell assay, Mixed Lymphocyte Reaction (MLR), WST-1 assay on RPMI1788 cells (B-cell line) and cytotoxicity WST-1 assay on Jurkat cells (T-cell line). Compounds were prepared as 10 mM stock solutions in dimethylsulfoxide (DMSO)and were tested at 50-10-1-0.1-0.01 and 0.001 μM in the 4 assays.
Blood samples of healthy volunteers were collected at the Red Cross of Mechelen, Belgium. Each donor consents to the use of their blood for research purposes. […] The human B cell line RPMI1788 (American Type Culture Collection, USA) and the human T cell line Jurkat (European Collection of Cell Cultures, ECACC, England) were maintained in RPMI1640 culture medium (BioWhittaker®, Lonza, Verviers, Belgium) containing 10% foetal calf serum (FCS, HyClone® Thermo Scientific, United Kingdom) and 5 μg/mL gentamicin sulphate (BioWhittaker®, Lonza, Verviers, Belgium) at 37°C and 5% CO2.
MLR assay (T cell assay): Freshly isolated human PBMCs (responder cells) were resuspended in RPMI1640 medium containing 10% FCS and 5nμg/mL gentamicin sulphate. RPMI1788 cells (stimulator cells) were inactivated by treatment with mitomycin C (Kyowa®, Takeda Belgium, Brussels, Belgium) for 20 min at 37°C, washed and finally suspended in culture medium. An amount of 100 μL of each cell suspension was mixed with 20 μL of diluted compound. The mixed cells were cultured at 37°C for 6 days in 5% CO2. DNA synthesis was assayed by the addition of 10 μCi (methyl-3H) thymidine (Perkin Elmer, Zaventem, Belgium) per well during the last 18 h in culture. Thereafter, the cells were harvested on glass filter paper and the counts per minute determined in a liquid scintillation counter (TopCount, Perkin Elmer, Zaventem, Belgium).

[3] = tested on: human CD19+ B cells; assay: B-cell assay: IgG production of ODN2006-stimulated primary B cells (AlphaLISA); assay type: cell-based; conditions: Homo sapiens, B-cell
[4] = target: T1, CK1d (Homo sapiens, UniProt P48730); assay: Kinase activity test (ReactionBiology), % enzyme activity relative to DMSO; assay type: biochemical; conditions: CK1d
T1 construct: purchased ReactionBiology

[5] = WST-1 cytotoxicity assay on Jurkat cells (T-cell line); assay type: cell-based, human; conditions: human, Jurkat cells (T-cell line), mean of 4 independent measures, read-out: Cytotoxicity, WST-1 Jurkat IC 50 (µM) Mean
Description: Compounds were prepared as 10 mM stock solutions in dimethylsulfoxide (DMSO)and were tested at 50-10-1-0.1-0.01 and 0.001 μM in the 4 assays.
The human B cell line RPMI1788 (American Type Culture Collection, USA) and the human T cell line Jurkat (European Collection of Cell Cultures, ECACC, England) were maintained in RPMI1640 culture medium (BioWhittaker®, Lonza, Verviers, Belgium) containing 10% foetal calf serum (FCS, HyClone® Thermo Scientific, United Kingdom) and 5 μg/mL gentamicin sulphate (BioWhittaker®, Lonza, Verviers, Belgium) at 37°C and 5% CO2.
WST-1 assays on RPMI-1788 cells and Jurkat cells were performed as follows: 20 μL of test compound dilution were added to each well containing exponential growing cells and the plates were incubated for 48 h at 37°C, 5% CO2. Untreated cells and positive control (1% triton X-100, for the last 15 min) served as reference for maximum and minimum viability. At the end of incubation 100 μL of supernatant were removed and replaced by 10 μL of WST-1 solution (Cell Proliferation Reagent WST-1, Roche Applied Science).

[6] = target: T2, NEK2 (Homo sapiens, UniProt P51955); assay: Kinase activity test (ReactionBiology), % enzyme activity relative to DMSO; assay type: biochemical;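 note: FDA-approved drugs chosen by structure-based repositioning, each screened at 10 or 1 µM for kinase activity, expressed as percent of DMSO controls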
T2 construct: purchased ReactionBiology
T2 sequence (P51955 1-445): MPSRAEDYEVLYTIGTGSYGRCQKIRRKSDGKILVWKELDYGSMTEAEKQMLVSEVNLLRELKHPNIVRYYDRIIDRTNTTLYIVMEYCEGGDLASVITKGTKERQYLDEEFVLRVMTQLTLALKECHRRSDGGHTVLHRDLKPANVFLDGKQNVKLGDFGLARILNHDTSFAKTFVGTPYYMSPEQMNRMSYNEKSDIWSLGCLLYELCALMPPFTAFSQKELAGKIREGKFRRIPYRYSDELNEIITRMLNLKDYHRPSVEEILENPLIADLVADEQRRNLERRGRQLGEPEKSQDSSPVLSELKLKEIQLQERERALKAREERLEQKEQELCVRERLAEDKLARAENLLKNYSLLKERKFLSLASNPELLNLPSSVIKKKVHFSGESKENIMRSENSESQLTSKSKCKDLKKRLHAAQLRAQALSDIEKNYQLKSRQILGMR

[7] = target: VEGFR2 (Homo sapiens, UniProt P35968); assay: as above; assay type: biochemical; set-up: purchased ReactionBiology; conditions: VEGFR2;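 note: VEGFR2 was one member of a ten-kinase screening panel testing marketed FDA-approved drugs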
[8] = target: T3, DAPK1 (Homo sapiens, UniProt P53355); assay: as above; assay type: biochemical; conditions: DAPK1
T3 construct: purchased ReactionBiology

[9] = 168 h, IgG production, ODN2006 0.1 μM, 7 days, mean of 4 independent experiments, read-out: B-cell IC50
[10] = 1 uM, Average, read-out: % Enzyme Activity (relative to DMSO controls), Average
[11] = 1 uM, replicate Data 1, read-out: % Enzyme Activity (relative to DMSO controls), Data 1
[12] = 1 uM, replicate Data 2, read-out: % Enzyme Activity (relative to DMSO controls), Data 2
[13] = 10 uM, Average, read-out: % Enzyme Activity (relative to DMSO controls), Average
[14] = 10 uM, replicate Data 1, read-out: % Enzyme Activity (relative to DMSO controls), Data 1
[15] = 10 uM, replicate Data 2, read-out: % Enzyme Activity (relative to DMSO controls), Data 2
[16] = compound 1μM, relative to DMSO controls, read-out: % Enzyme activity at 1μM
[17] = compound 10μM, relative to DMSO controls, read-out: % Enzyme activity at 10μM
[18] = NEK2, 1 uM, Average, read-out: % Enzyme Activity (relative to DMSO controls), Average
[19] = NEK2, 1 uM, replicate Data 1, read-out: % Enzyme Activity (relative to DMSO controls), Data 1
[20] = NEK2, 1 uM, replicate Data 2, read-out: % Enzyme Activity (relative to DMSO controls), Data 2
[21] = NEK2, 10 uM, Average, read-out: % Enzyme Activity (relative to DMSO controls), Average
[22] = NEK2, 10 uM, replicate Data 1, read-out: % Enzyme Activity (relative to DMSO controls), Data 1
[23] = NEK2, 10 uM, replicate Data 2, read-out: % Enzyme Activity (relative to DMSO controls), Data 2
[24] = NEK2, compound 1μM, relative to DMSO controls, read-out: % Enzyme activity at 1μM
[25] = NEK2, compound 10μM, relative to DMSO controls, read-out: % Enzyme activity at 10μM
[26] = read-out: % Enzyme Activity (relative to DMSO controls), Average
[27] = read-out: % Enzyme Activity (relative to DMSO controls), Data 1
[28] = read-out: % Enzyme Activity (relative to DMSO controls), Data 2

T1 sequence (P48730 whole entry): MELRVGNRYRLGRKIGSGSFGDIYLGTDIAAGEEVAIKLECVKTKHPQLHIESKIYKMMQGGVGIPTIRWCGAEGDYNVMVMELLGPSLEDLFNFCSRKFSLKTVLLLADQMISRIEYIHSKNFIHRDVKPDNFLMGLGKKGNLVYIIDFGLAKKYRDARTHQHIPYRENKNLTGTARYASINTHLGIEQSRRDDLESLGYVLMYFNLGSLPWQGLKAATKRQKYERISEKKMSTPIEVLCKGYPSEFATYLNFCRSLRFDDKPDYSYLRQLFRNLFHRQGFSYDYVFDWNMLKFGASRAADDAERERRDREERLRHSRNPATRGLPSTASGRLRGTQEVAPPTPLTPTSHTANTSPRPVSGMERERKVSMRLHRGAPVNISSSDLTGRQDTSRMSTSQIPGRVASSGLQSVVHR
T3 sequence (P53355 whole entry): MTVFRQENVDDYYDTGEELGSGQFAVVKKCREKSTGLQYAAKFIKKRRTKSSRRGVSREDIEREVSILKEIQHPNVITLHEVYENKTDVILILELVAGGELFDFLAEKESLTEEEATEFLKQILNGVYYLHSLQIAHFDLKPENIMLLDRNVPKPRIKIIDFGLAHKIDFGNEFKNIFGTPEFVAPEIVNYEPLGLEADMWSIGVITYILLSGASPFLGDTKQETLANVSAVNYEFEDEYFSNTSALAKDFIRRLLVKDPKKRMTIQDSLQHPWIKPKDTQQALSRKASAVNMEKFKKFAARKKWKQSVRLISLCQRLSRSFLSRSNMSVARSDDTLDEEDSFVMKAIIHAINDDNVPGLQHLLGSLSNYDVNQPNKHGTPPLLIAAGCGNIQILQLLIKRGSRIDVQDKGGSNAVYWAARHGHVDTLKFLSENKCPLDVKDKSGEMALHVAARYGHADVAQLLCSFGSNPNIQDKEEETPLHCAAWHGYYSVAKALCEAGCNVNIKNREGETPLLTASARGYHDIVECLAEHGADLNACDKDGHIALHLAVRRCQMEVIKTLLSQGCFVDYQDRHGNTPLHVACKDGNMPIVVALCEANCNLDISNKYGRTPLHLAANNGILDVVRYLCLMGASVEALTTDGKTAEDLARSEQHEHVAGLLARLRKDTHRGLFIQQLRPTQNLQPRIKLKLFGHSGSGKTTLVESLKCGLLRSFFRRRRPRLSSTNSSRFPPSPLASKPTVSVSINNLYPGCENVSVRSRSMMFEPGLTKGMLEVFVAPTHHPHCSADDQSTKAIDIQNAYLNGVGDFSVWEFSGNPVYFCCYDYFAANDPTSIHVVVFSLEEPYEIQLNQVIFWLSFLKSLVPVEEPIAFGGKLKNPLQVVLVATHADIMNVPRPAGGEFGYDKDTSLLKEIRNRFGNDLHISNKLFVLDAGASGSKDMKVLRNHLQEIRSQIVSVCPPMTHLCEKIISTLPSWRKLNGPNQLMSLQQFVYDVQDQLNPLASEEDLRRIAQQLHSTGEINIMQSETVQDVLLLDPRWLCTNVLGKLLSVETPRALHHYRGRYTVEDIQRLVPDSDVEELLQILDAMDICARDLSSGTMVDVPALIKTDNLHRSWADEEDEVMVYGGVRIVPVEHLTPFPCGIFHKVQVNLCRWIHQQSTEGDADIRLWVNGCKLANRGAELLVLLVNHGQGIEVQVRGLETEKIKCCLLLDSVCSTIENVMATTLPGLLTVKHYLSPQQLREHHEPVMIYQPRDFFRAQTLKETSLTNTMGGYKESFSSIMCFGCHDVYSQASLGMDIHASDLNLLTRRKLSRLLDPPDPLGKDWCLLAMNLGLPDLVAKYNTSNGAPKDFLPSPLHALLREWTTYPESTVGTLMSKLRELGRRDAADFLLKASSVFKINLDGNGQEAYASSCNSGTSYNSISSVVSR
Sequence of VEGFR2 (P35968 20-1356): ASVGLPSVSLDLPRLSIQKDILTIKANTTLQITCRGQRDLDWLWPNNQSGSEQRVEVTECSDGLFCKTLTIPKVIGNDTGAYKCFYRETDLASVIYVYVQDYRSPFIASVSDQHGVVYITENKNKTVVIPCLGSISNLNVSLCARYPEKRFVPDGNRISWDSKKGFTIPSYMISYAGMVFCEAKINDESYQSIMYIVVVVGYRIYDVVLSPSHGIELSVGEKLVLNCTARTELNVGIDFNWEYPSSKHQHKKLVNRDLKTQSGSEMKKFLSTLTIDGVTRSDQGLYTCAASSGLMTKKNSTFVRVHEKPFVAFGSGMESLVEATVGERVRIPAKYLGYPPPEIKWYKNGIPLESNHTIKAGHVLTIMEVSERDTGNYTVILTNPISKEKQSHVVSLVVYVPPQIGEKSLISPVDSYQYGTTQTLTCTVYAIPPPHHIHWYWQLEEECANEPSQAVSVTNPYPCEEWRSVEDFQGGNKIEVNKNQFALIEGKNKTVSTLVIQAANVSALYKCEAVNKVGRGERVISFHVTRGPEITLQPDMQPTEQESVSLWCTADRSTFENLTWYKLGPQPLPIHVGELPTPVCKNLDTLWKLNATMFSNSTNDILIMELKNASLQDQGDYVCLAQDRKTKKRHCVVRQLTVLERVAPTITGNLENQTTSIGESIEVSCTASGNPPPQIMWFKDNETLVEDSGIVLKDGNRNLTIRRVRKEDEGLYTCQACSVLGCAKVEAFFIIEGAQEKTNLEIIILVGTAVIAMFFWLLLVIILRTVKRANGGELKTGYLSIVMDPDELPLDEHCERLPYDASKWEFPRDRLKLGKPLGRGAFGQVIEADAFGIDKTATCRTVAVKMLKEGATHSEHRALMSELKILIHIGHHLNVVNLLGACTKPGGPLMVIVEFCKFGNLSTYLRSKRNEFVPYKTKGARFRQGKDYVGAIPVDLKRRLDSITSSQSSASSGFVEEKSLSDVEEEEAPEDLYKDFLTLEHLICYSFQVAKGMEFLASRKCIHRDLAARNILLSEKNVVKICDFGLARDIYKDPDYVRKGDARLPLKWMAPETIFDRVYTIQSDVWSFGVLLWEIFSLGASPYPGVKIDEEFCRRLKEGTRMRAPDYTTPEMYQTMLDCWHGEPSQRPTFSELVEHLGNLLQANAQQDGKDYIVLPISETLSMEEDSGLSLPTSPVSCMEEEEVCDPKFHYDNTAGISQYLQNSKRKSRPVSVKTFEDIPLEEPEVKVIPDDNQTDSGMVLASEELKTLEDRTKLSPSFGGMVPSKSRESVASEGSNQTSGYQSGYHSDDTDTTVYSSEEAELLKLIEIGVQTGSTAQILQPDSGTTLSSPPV

| IC50 [3, 9] | remaining activity at 1 µM [4, 10] | remaining activity at 1 µM [4, 11] | remaining activity at 1 µM [4, 12] | remaining activity at 10 µM [4, 13] | remaining activity at 10 µM [4, 14] | remaining activity at 10 µM [4, 15] | remaining activity at 1 µM [6, 18] | remaining activity at 1 µM [6, 19] | remaining activity at 1 µM [6, 20] | remaining activity at 10 µM [6, 21] | remaining activity at 10 µM [6, 22] | remaining activity at 10 µM [6, 23] | remaining activity at 1 µM [6, 24] | remaining activity at 10 µM [6, 25] | remaining activity at 1 µM [7, 10] | Structure (SMILES) | IC50 at 48 h [1] | IC50 [2] | Selectivity Index (SI) MLR/B-cell [2] | IC50 at 48 h [5] | also measured |
| --- | --- | --- | --- | --- | --- | --- | --- | --- | --- | --- | --- | --- | --- | --- | --- | --- | --- | --- | --- | --- | --- |
| 0.66 µM | 107% | 106% | 108% | 69.1% | 70.5% | 67.6% | – | – | – | – | – | – | – | – | – | CCN(CC)Cc1cc(Nc2ccnc3cc(Cl)ccc23)ccc1O [Amodiaquine, reference compound] | 28.1 µM | 9.78 µM | 14.73 | 26.2 µM | remaining activity at 1 µM [4, 16]: 107%; remaining activity at 10 µM [4, 17]: 69.1% |
| – | 106% | 107% | 104% | 84.8% | 84.6% | 85.1% | 97.9% | 94.5% | 101% | 50.7% | 44.7% | 56.7% | 97.9% | 50.7% | – | CC/C(=C(/CC)c1ccc(O)cc1)c1ccc(O)cc1 [Diethylstilbestrol, reference compound] | 31.4 µM | – | – | 6.7 µM | – |
| 5.9 µM | – | – | – | – | – | – | – | – | – | – | – | – | – | – | 108% | Cc1cc(C#N)cc(C)c1Oc1nc(Nc2ccc(C#N)cc2)nc(N)c1Br [Etravirine, reference compound] | 8 µM | 7.27 µM | 1.23 | 30.4 µM | remaining activity at 1 µM [7, 11]: 108%; remaining activity at 1 µM [7, 12]: 108%; remaining activity at 10 µM [7, 13]: 41.1%; remaining activity at 10 µM [7, 14]: 42.6%; remaining activity at 10 µM [7, 15]: 39.5%; remaining activity at 1 µM [7, 16]: 108%; remaining activity at 10 µM [7, 17]: 41.1% |
| 0.0002 µM | – | – | – | – | – | – | – | – | – | – | – | – | – | – | 19.5% | C=CC(=O)N1CCC[C@@H](n2nc(-c3ccc(Oc4ccccc4)cc3)c3c(N)ncnc32)C1 [Ibrutinib, reference compound] | 0.7 µM | 1 µM | – | 14.7 µM | remaining activity at 1 µM [8, 10]: 95.6%; remaining activity at 1 µM [8, 11]: 97.4%; remaining activity at 1 µM [8, 12]: 93.8%; remaining activity at 10 µM [8, 13]: 23.7%; remaining activity at 10 µM [8, 14]: 24%; remaining activity at 10 µM [8, 15]: 23.5%; remaining activity at 1 µM [8, 16]: 95.6%; remaining activity at 10 µM [8, 17]: 23.7%; IC50 ([3]; mean of 4 independent measures, read-out: B-cell efficacy, B cell IC 50 (µM) Mean): 0.000181 µM; remaining activity at 1 µM [7, 11]: 19.6%; remaining activity at 1 µM [7, 12]: 19.5%; remaining activity at 10 µM [7, 14]: 1.46%; remaining activity at 10 µM [7, 15]: 1.53%; inhibition of the kinase activity (strong/weak) ([7]; at 10 and 1 μM): strong (We considered a 50% inhibition of the kinase activity as strong); remaining activity at 1 µM [7, 16]: 19.5% |
| – | – | – | – | – | – | – | 70.1% | 67.7% | 72.5% | 68.7% | 69.6% | 67.8% | 70.1% | 68.7% | – | CN1CCN(CCCN2c3ccccc3Sc3ccc(Cl)cc32)CC1 [Prochlorperazine, reference compound] | 9.63 µM | – | – | 21.9 µM | – |
| 0.59 µM | – | – | – | – | – | – | 104% | 104% | 104% | 51.6% | 49% | 54.1% | 104% | 51.6% | – | Nc1ccc2cc3ccc(N)cc3nc2c1 [Proflavine, reference compound] | 3.01 µM | 4.39 µM | 7.5 | 5 µM | – |
| 34.1 µM | 106% | 106% | 106% | 97.2% | 99.7% | 94.7% | 90.2% | 91.2% | 89.1% | 48.1% | 47.1% | 49.1% | 90.2% | 48.1% | 104% | N[C@@H](Cc1cc(I)c(Oc2cc(I)c(O)c(I)c2)c(I)c1)C(=O)O [Thyroxine, reference compound] | > 50 µM | > 50 µM | – | > 50 µM | remaining activity at 1 µM [7, 11]: 106%; remaining activity at 1 µM [7, 12]: 103%; remaining activity at 10 µM [7, 13]: 86.6%; remaining activity at 10 µM [7, 14]: 89.7%; remaining activity at 10 µM [7, 15]: 83.5% |

| Structure (SMILES) | IC50 [3, 9] | remaining activity at 1 µM [4, 10] | remaining activity at 1 µM [4, 11] | remaining activity at 1 µM [4, 12] | remaining activity at 10 µM [4, 13] | remaining activity at 10 µM [4, 14] | remaining activity at 10 µM [4, 15] | remaining activity at 1 µM [6, 18] | remaining activity at 1 µM [6, 19] | remaining activity at 1 µM [6, 20] | remaining activity at 10 µM [6, 21] | remaining activity at 10 µM [6, 22] | remaining activity at 10 µM [6, 23] | remaining activity at 1 µM [6, 24] | remaining activity at 10 µM [6, 25] | remaining activity at 1 µM [7, 10] | IC50 at 48 h [1] | IC50 [2] | Selectivity Index (SI) MLR/B-cell [2] | IC50 at 48 h [5] | also measured |
| --- | --- | --- | --- | --- | --- | --- | --- | --- | --- | --- | --- | --- | --- | --- | --- | --- | --- | --- | --- | --- | --- |
| Oc1c(Cl)cc(Cl)c(Cl)c1Cc1c(O)c(Cl)cc(Cl)c1Cl [Hexachlorophene, reference compound] | 5.34 µM | – | – | – | – | – | – | – | – | – | – | – | – | – | – | – | 4.2 µM | 1.42 µM | – | 5.88 µM | remaining activity at 1 µM [6, 26]: 84.9%; remaining activity at 10 µM [6, 26]: 0.02%; remaining activity at 1 µM [6, 27]: 85.4%; remaining activity at 10 µM [6, 27]: -0.21%; remaining activity at 1 µM [6, 28]: 84.5%; remaining activity at 10 µM [6, 28]: 0.25%; remaining activity at 1 µM ([6]; read-out: % Enzyme activity at 1μM): 84.9%; remaining activity at 10 µM ([6]; read-out: % Enzyme activity at 10μM): 0.02% |
